Measured values taken from ChEMBL document CHEMBL3507680, “University of Dundee, Gates Library screen for HepG2 cell viability”.

Test: Human HepG2 cell viability assay in 384 well format
Format: toxicity, cell-based
Design: dose 125 nL, time 70.5 hour; concentration not given beside the values
Details: HepG2 cells, read-out: Inhibition

Compound | cytotoxicity at 70.5 h
O=C(NCC1CCOCC1)[C@@H]1C[C@@H]2CCN(Cc3ccco3)C[C@H]2O1 | -5.42%
CC(=O)NCC(=O)N1CCC2(CC1)CN(c1cccnc1)C(=O)CO2 | -13.6%
Cc1ccc(CNC(=O)CN2CCOC(Cn3cccn3)C2)s1 (configuration not stated) | -4.52%
Cc1nccnc1-n1c(COCC(=O)O)nc2c(C)cccc21 | -1.07%
O=C(c1ccc(S(=O)(=O)N2CCNCC2)cc1)N1CCCC(O)C1 (configuration not stated) | -16.1%
Cn1cc(CN2CCCN(C(=O)c3ccccn3)CC2)cn1 | -1.29%
CC(C)c1nc2n(n1)CC(NCc1cc3ccccc3o1)CC2 (configuration not stated) | 12.7%
CN1CCN(C2CCN(C(C(N)=O)c3ccccc3)CC2)C1=O (configuration not stated) | -5.22%
CCc1cc(CNC(=O)N2CCC(Cc3cnn(C)c3)C2)on1 (configuration not stated) | -4.1%
Cn1ccnc1C(O)c1ccccc1N1CCN(Cc2cccs2)CC1 (configuration not stated) | -0.023%
Cn1ccc2c(cnc3nc(-c4ccncc4)nn32)c1=O | -7.69%
COc1cccc(-c2cc(C(=O)Nc3nc[nH]n3)[nH]n2)c1 | -11.1%
Cc1ccc(C(=O)N(C)Cc2c(C)noc2C)c(=O)[nH]1 | -0.278%
CC(C)N1CCCC(CCCc2ccccn2)(C(=O)O)C1 (configuration not stated) | -14.7%
OC[C@H]1CC[C@]2(CC1)CN(Cc1ccsc1)Cc1ccccc1O2 | 7.87%
CCNc1ccnc(N2Cc3cnn(Cc4ccc(F)cc4)c3C2)n1 | -4%
CCN(CC)CCCNCc1cc2cc(C)cc(C)c2[nH]c1=O | 3.4%
CN(Cc1ccsc1)C(=O)c1cccc(NS(C)(=O)=O)c1 | -7.22%
COc1ccc(OC2CCN(C(=O)C(C)Cn3cccn3)CC2)cc1 (configuration not stated) | -2.17%
O=C(NCC1CC1)c1c2c(N3CCCC3)ncnc2n2ccccc12 | 9.08%
Cc1ncc(CN2CCOC(c3ccc(-c4ccccc4F)cn3)C2)s1 (configuration not stated) | 49.2%
CCOc1ccc(S(=O)(=O)NCCCc2ccc(N(C)C)cc2)cc1F | 0.733%
c1cnc(N2C[C@H]3CCN(CC4CC4)C[C@H]3C2)cn1 | 3.82%

Compound | cytotoxicity at 70.5 h
Cc1cccc(CN2CCc3c(COCC(=O)N(C)C)nn(C)c3C2)n1 | 0.676%
COCCC(=O)N1CCN(CC2CC2)c2nc(C)ccc2C1 | 9.16%
N#Cc1ccc(NC(=O)C2CSCN2)cc1 (configuration not stated) | -6.81%
O=C(c1ccccc1)N1CCC[C@]2(C[C@@H](Oc3ncccc3F)CO2)C1 | 23.2%
Cc1ccc(CN2CCC3(CCCN(S(C)(=O)=O)C3)C2)o1 (configuration not stated) | -12.7%
Cc1c(-c2cc(C(=O)N3CCc4ncc(Cl)cc4C3)on2)cnn1C | 35%
Cc1nc(COC(=O)c2cccc3c2OCCO3)cs1 | -11.2%
Cc1ccc(C)c(CSc2nnc([C@@H](N)C(C)C)o2)c1 | -0.583%
COc1cccc(Cn2c(=O)n(C)c(=O)c3sccc32)c1 | 0.75%
O=C(c1ccc2c(c1)COC2)N1CCCN(Cc2cscn2)CC1 | 1.09%
CN(C(=O)C1CCOCC1)[C@@H]1CCC[C@@H](N2CCOCC2)[C@@H]1O | -5.89%
Cc1nc(O)cc([C@@H]2CN(S(=O)(=O)N(C)C)C[C@H]2c2ccccc2F)n1 | -8.96%
CNC(=O)Cc1ccccc1NC(=O)NCc1ccc(SC)cc1 | 19.8%
Cc1occc1C(=O)N(CCN(C)C)Cc1ccccn1 | 15.9%
CC(C)(C)c1coc([C@@H]2COCCN2Cc2c[nH]c3ccccc23)n1 | 1.59%
COc1cccc(CC2CCCN2CCCC#N)c1 (configuration not stated) | -1.21%
CCn1cc(CN2CCC3(CC2)c2ccccc2CC3O)cn1 (configuration not stated) | -8.46%
O=C(NCCCN1CCCCCC1=O)c1n[nH]c(=O)c2ccccc12 | -2.46%
COc1cc(C(=O)N2C[C@H]3CC[C@@H]2CN(Cc2cscn2)C3)ccn1 | -22.3%
Cc1nnc(CN(C)CC2CCCN2c2cccnn2)o1 (configuration not stated) | -3.53%
COc1cccc([C@@]2(O)CC[C@@H]3CN(C(=O)c4c[nH]nc4C)C[C@@H]32)c1 | -6.08%
Nc1cc(CCC2CN(Cc3cccc(C(=O)O)c3)CCO2)ccn1 (configuration not stated) | -7.61%
CC(=O)Nc1cccc(CNC(=O)N(C)Cc2ccccc2)c1 | -8.01%

Compound | cytotoxicity at 70.5 h
CCOc1ccccc1OC1CCN(C(=O)c2ccc(=O)[nH]n2)CC1 | -7.24%
Cc1ccc(C(NC(=O)[C@H]2CC[C@@H](O)CC2)c2cccnc2)cc1C (some centres not stated) | -6.91%
CC(C)Cc1nc(CN2CCC(N3CCN(C)C3=O)CC2)no1 | -1.18%
CCC1CN(C(=O)c2ccc(O)cn2)CCC(=O)N1Cc1ccccc1 (configuration not stated) | -3.56%
O=C(CC1CC1)N[C@@H]1CN(Cc2ccc(F)cc2)C[C@@H]2CCCO[C@@H]21 | -3.12%
Cc1cn2c(n1)CCC(NC(=O)CCOc1ccccc1F)C2 (configuration not stated) | -5.57%
CNc1oc(-c2ccc(OC)c(S(=O)(=O)N3CCCCC3)c2)nc1C#N | -18%
Cc1ccccc1CSc1nc(=O)n(CCO)c2c1CCC2 | -9.33%
CCc1c(O)nc(SCC(=O)N(CC)CC)n(C(C)CC)c1=O (configuration not stated) | -0.0297%
COc1cc(C)ccc1OCc1nc(C(=O)N2CCCO2)co1 | 10.4%
Cc1ccc(Nc2ncnc3c2CCN(CC2CCOC2)CC3)cc1 (configuration not stated) | -7.38%
Cc1cc(F)c(S(=O)(=O)N(C)CCn2cccn2)cc1F | -9.11%
CCCC(C)CN1CCC(n2cc(C3CCCC3)nn2)CC1 (configuration not stated) | -6.08%
CN1CCCC1c1ccnc(C(=O)N(C)C2CCCCC2)c1 (configuration not stated) | -11.9%
CCS(=O)(=O)NC1CCCN(c2ccc(F)cc2C)C1=O (configuration not stated) | -3.11%
CC(C)c1cc(C(F)(F)F)n2nc(C3CCN(S(C)(=O)=O)C3)cc2n1 (configuration not stated) | -1.05%
FC(F)(F)c1n[nH]c2c1CN(CCc1ccccn1)CC2 | 13.8%
CN1CCN(Cc2c[nH]cn2)CC12CCC(=O)N(CC1CC1)CC2 (configuration not stated) | 6.57%
CN(CCN1CCCC1)c1nccc(N2CCN[C@H]3CS(=O)(=O)C[C@H]32)n1 | 22.4%
COc1ccc2c(CN3CCN(Cc4cccc(F)c4)CC3)n[nH]c2c1 | -3.1%
CC(C)n1nccc1NC(=O)CN1CCc2sccc2C1 | -15.3%
COCC(=O)N1C[C@H]2CCCC(OCc3cccnc3)[C@H]2C1 (some centres not stated) | -6.29%
O=C(CCc1ccncc1)NCc1csc(Br)c1 | -7.74%

Compound | cytotoxicity at 70.5 h
Cc1c(C(=O)N2CCNC(=O)C2)sc2nc[nH]c(=O)c12 | 13.4%
NC(=O)C1CCN(C(=O)CCn2ccc3ccc(F)cc32)CC1 | -6.99%
CCN(C(=O)CN1CCn2c(nnc2C2CC2)C1)C1=CCCCC1 | -14.8%
COC(C(=O)N1CCN(Cc2noc(C)n2)CC1)c1ccccc1 (configuration not stated) | -3.29%
Fc1cnc(N2CCO[C@H]3CN(CC4CCCCC4)C[C@H]32)nc1 | 17.9%
CC(C)(C)CCN1CCC(c2nnc(Cn3cccn3)n2C2CC2)CC1 | -9.38%
CC1CN(CCOc2cccc(C#N)c2)CCN1Cc1nccn1C (configuration not stated) | -3.4%
CCn1cnnc1CNC(=O)c1cc(Cl)ccc1OC | -4.87%
Cc1cnc2c(S(=O)(=O)NCC3CC3)cccc2c1 | -1.56%
COCCNC(=O)c1cc2c(s1)CCN2C(=O)c1ccccc1 | 6.46%
COC(=O)C(C)CN(C)S(=O)(=O)c1c(Br)cc2[nH]c(=O)oc2c1Cl (configuration not stated) | -4.98%
CCS(=O)(=O)c1nnc([C@@H](N)Cc2ccccc2)o1 | 16.2%
CCc1noc(CC)c1CNC(=O)Nc1ccc2[nH]nnc2c1 | -4.16%
CCC(=O)N1CCC(c2nc(C)ncc2-c2ccncc2)CC1 | -7.07%
NC(=O)C1CCN(Cc2csc(-c3ncccn3)n2)CC1 | 18.7%
Cc1cc(C(=O)N2CC(O)CO2)c2cccc(C)c2n1 (configuration not stated) | -13%
O=C(NCCN1CCCC1)Nc1cc(C(=O)N2CCOCC2)ccc1Cl | -8.22%
COCCNC(=O)[C@H]1C[C@@H]2CCN(c3ccncn3)C[C@H]2O1 | 1.69%
CN(C)CC(=O)N1CCC2(CC1)CN(Cc1cccnc1)C(=O)CO2 | 17.2%
CCn1nc2c(cc1=O)CN(Cc1nc(C)c(C)o1)CC2 | -15.3%
COCCN1C(=O)[C@H]2CC[C@@H]1CN(c1ncccn1)C2 | 11.5%
Cc1cc(NC(=O)C(C)N2CCN(c3nc(C)cs3)CC2)on1 (configuration not stated) | -5.64%
COCCN1CCN(c2ccc(CN(C)C)cn2)CC1 | 16.1%

Compound | cytotoxicity at 70.5 h
CNC(=O)C1(C)CN(S(=O)(=O)c2cccc(OC)c2)CCO1 (configuration not stated) | 22.5%
COc1cccc(/C=C/CCN2CCN(S(C)(=O)=O)CC2)c1 | -3.47%
CCN(CC)CC1CN(Cc2ccco2)Cc2nccn2C1 (configuration not stated) | -4.92%
Cc1cc(F)ccc1N1CCC(N2C[C@@H](C)[C@@](C)(O)C2)CC1 | -5.91%
CS(=O)(=O)NC1CCN(Cc2coc(-c3ccccc3)n2)CC1 | -9.14%
Cc1nc(C)n(CC2CN(CCOCC(F)(F)F)CCO2)n1 (configuration not stated) | -17.5%
Cc1cc(C)n(C2CN(CC(=O)NCc3ccccn3)C2)n1 | -16.2%
Cc1cc(F)cc(CN2CCCn3nc(CNS(C)(=O)=O)cc3C2)c1 | 0.898%
CN(C)c1nccc(-c2c[nH][nH]c2=O)n1 | -1.59%
O=C1NC2(CCN(C(=O)c3ccc(Cl)cn3)CC2)CC1c1ccccc1 (configuration not stated) | 8.76%
CCc1nc2n(n1)CC(NCc1nnc(C(C)C)o1)CC2 (configuration not stated) | 19.3%
Cn1cncc1-c1nnc([C@H]2CCN(Cc3ccc(CO)o3)C2)o1 | 5.94%
CCCc1nccn1-c1cccc(CN2CCCC2)c1 | -2.36%
O=C(NCC(=O)N1CCN(c2ccccc2)CC1)c1sccc1C1CC1 | -2.46%
Cc1ncncc1C(=O)N1CCCC(n2ccnc2C)C1 (configuration not stated) | 1.79%
Cc1cncc(C(=O)N2CCCC(O)(CN3CCCC3)C2)c1 (configuration not stated) | -19.8%
O=C(c1ccncc1)N1CCc2ncnc(C3CC3)c2CC1 | -14.3%
Cc1n[nH]cc1C(=O)N1CCCC(c2cccc(-n3ccnc3)n2)C1 (configuration not stated) | -7.73%
COc1cccc2c1OCC(CNC(=O)CCCN1CCOCC1)C2 (configuration not stated) | -7.84%
N#Cc1cccc(OCCN2CCCC2C(=O)NCC(F)(F)F)c1 (configuration not stated) | -0.526%
